Assay: Salt and cocrystal evaluation (equilibration, cooling, slow evaporation, anti-solvent, re-equilibration)
Assay type: physicochemical
Procedure: Compound 1 was investigated with a variety of salts to find additional morphic forms and cocrystals. This salt and cocrystal investigation for Compound 1 was performed with free form Pattern A*. This is a hydrate with medium crystallinity. […] Acetone, methanol, ethyl acetate and acetonitrile were used as evaluation solvents. Five crystallization methods, including equilibration, fast cooling, slow evaporation, addition of anti-solvent and re-equilibration, were applied to obtain salt or cocrystal hits. From these investigations only one crystalline form—a urea cocrystal Form P was identified.
Based on the pKa of free form, 14 acids were selected for evaluation in acetone and methanol. About 30 mg of Compound 1 free form and 1 or 2 equivalents of salt forming agents 5 were weighed into 2 mL glass vials. 200 μL of acetone or methanol was added. […] To avoid degradation, experiments with strong acids were conducted without heating. Samples were stirred at 25° C. for 2 days. Obtained suspensions were taken out and centrifuged. Then wet cakes were dried at 25° C. under vacuum for 2 h. Obtained solids were analyzed by XRPD and results were summarized.
To obtain crystalline salts, another two solvents including ethyl acetate and acetonitrile were added as solvents. About 30 mg of Compound 1 free form and 1 or 2 equivalents of salt forming agents were weighed into 2 mL glass vials. 400 μL of ethyl acetate or 300 μL of acetonitrile was added. Samples were stirred at 25° C. for 2 days. Obtained solids were analyzed by XRPD and results were summarized.
Nicotinamide and urea were selected as crystallization agents for cocrystal evaluation. Acetone, methanol, ethyl acetate and acetonitrile were used as solvents. About 30 mg of Compound 1 free form, and 1 equivalent of crystallization agent were weighed into 2 mL glass vials. […] of acetone, 200 μL of methanol, […] of ethyl acetate or 300 µL of acetonitrile was added. Obtained suspensions were stirred at 25° C. for 2 days. Obtained solids were analyzed by XRPD and results were summarized.
Supernatants obtained from equilibration experiments were cooled to 5° C. and stirred at 5° C. for 3 days. Then obtained suspensions were centrifuged at 5° C. and solids were dried under vacuum at 25° C. for 2 h. No crystalline salt was obtained.
No crystalline hits were obtained.
Amorphous salts from above experiments were re-equilibrated at 25° C. for crystallization. No crystalline salt hits were obtained.

Question: With `COc1cc(-c2cn(C)c(=O)c(C)c2C)cc(OC)c1CN1CC[C@H](N2CCN(c3ccc(N[C@H]4CCC(=O)NC4=O)cc3F)CC2)C(F)(F)C1` [Compound 1, (S)-3-((4-(4-((S)-1-(2,6-dimethoxy-4-(1,4,5-trimethyl-6-oxo-1,6-dihydropyridin-3-yl)benzyl)-3,3-difluoropiperidin-4-yl)piperazin-1-yl)-3-fluorophenyl)amino)-piperidine-2,6-dione] as the compound, how does the “Results (re-equilibration for 8 days) Acetone” value (1.05 equiv. Sulfuric acid, Acetone, +200 μL EA) read?
Answer: Free form Pattern B*

Question: And the “Results (re-equilibration for 8 days) Acetone” value (2.10 equiv. Hydrochloric acid, Acetone, +100 μL ACN)?
Answer: +100 μL ACN, Gel-like sample

Question: What about the “Results (re-equilibration for 8 days) Acetone” value (2.10 equiv. Methanesulfonic acid, Acetone, +200 μL EA) of the same compound?
Answer: +200 μL EA, Gel-like sample

Question: What about the “Results (anti-solvent addition) A Acetone” value (2.10 equiv. Trifluoroacetic acid, Acetone, +400 μL MTBE) of the same compound?
Answer: Clear solution

Question: What about the “Results (anti-solvent addition) C EA, XRPD” value (2.10 equiv. Trifluoroacetic acid, EA, +200 μL MTBE, suspension, AF = Amorphous form) of the same compound?
Answer: XRPD: AF*

Question: What about the “Results (cooling) A Acetone” value (cooled to 5° C., 3 days, 1.05 equiv. Fumaric acid, Acetone) of the same compound?
Answer: Clear Solution

Question: What about the “Results (cooling) A Acetone” value (cooled to 5° C., 3 days, 1.05 equiv. Sulfuric acid, Acetone) of the same compound?
Answer: Clear Solution

Question: What about the “Results (cooling) B MeOH” value (cooled to 5° C., 3 days, 1.05 equiv. Sulfuric acid) of the same compound?
Answer: Clear Solution

Question: And the “Results (cooling) B MeOH” value (cooled to 5° C., 3 days, 2.10 equiv. Citric acid)?
Answer: Clear Solution

Question: What about the “Results (cooling) A Acetone” value (cooled to 5° C., 3 days, 2.10 equiv. Fumaric acid, Acetone) of the same compound?
Answer: Clear Solution

Question: What about the “Results (cooling) A Acetone” value (cooled to 5° C., 3 days, 2.10 equiv. Hydrochloric acid, Acetone) of the same compound?
Answer: Clear Solution

Question: What about the “Results (cooling) B MeOH” value (cooled to 5° C., 3 days, 2.10 equiv. Hydrochloric acid) of the same compound?
Answer: Clear Solution

Question: What about the “Results (cooling) A Acetone” value (cooled to 5° C., 3 days, 2.10 equiv. L-Malic acid, Acetone) of the same compound?
Answer: Clear Solution

Question: And the “Results (cooling) B MeOH” value (cooled to 5° C., 3 days, 2.10 equiv. Maleic acid)?
Answer: Clear Solution

Question: What about the “Results (cooling) B MeOH” value (cooled to 5° C., 3 days, 2.10 equiv. Methanesulfonic acid) of the same compound?
Answer: Clear Solution

Question: What about the “Results (cooling) A Acetone” value (cooled to 5° C., 3 days, 2.10 equiv. Succinic acid, Acetone) of the same compound?
Answer: Clear Solution

Question: What about the “Results (cooling) A Acetone” value (cooled to 5° C., 3 days, 2.10 equiv. Sulfuric acid, Acetone) of the same compound?
Answer: Clear Solution

Question: What about the “Results (cooling) B MeOH” value (cooled to 5° C., 3 days, 2.10 equiv. Sulfuric acid) of the same compound?
Answer: Clear Solution

Question: What about the “Results (cooling) D ACN” value (cooled to 5° C., 3 days, 2.10 equiv. Trifluoroacetic acid, ACN) of the same compound?
Answer: Clear Solution

Question: And the “Results (cooling) A Acetone” value (cooled to 5° C., 3 days, 2.10 equiv. Trifluoroacetic acid, Acetone)?
Answer: Clear Solution

Question: And the “Results (cooling) C EA” value (cooled to 5° C., 3 days, 2.10 equiv. Trifluoroacetic acid, EA)?
Answer: Clear Solution

Question: And the “Results (cooling) B MeOH” value (cooled to 5° C., 3 days, 2.10 equiv. Trifluoroacetic acid)?
Answer: Clear Solution

Question: What about the “Results (cooling) B MeOH” value (cooled to 5° C., 3 days, 2.10 equiv. p-Toluenesulfonic acid) of the same compound?
Answer: Clear Solution

Question: And the “Results A Acetone” value (equilibration, 1.05 equiv. Fumaric acid, Acetone)?
Answer: Clear solution

Question: And the “Results A Acetone” value (equilibration, 1.05 equiv. Nicotinamide, Acetone)?
Answer: Clear solution

Question: What about the “Results A Acetone” value (equilibration, 1.05 equiv. Urea, Acetone) of the same compound?
Answer: Clear solution

Question: And the “Results A Acetone” value (equilibration, 2.10 equiv. Adipic acid, Acetone)?
Answer: Clear solution

Question: And the “Results A Acetone” value (equilibration, 2.10 equiv. Fumaric acid, Acetone)?
Answer: Clear solution

Question: And the “Results A Acetone” value (equilibration, 2.10 equiv. L-Malic acid, Acetone)?
Answer: Clear solution

Question: What about the “Results C EA” value (equilibration, 2.10 equiv. Methanesulfonic acid, EA, AF = Amorphous form) of the same compound?
Answer: AF MSA salt*

Question: What about the “Results A Acetone” value (equilibration, 2.10 equiv. Succinic acid, Acetone) of the same compound?
Answer: Clear solution

Question: And the “Results D ACN” value (equilibration, 2.10 equiv. Trifluoroacetic acid, ACN)?
Answer: Clear solution

Question: What about the “Results A Acetone” value (equilibration, 2.10 equiv. Trifluoroacetic acid, Acetone) of the same compound?
Answer: Clear solution

Question: What about the “Results C EA” value (equilibration, 2.10 equiv. Trifluoroacetic acid, EA) of the same compound?
Answer: Clear solution
